In PubChem BioAssay (NCI):
“And” between values parts separate entries of the source, which are not always exact repeats. Identical values can stand only once.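 Exposure lasted 48 hours, with cells grown in 96-well plates and compounds tested at five concentrations. GI50 marks 50% less growth. TGI denotes the concentration required for complete inhibition of growth.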

Key:
Experiment in all cases: NCI anticancer screen, dose series, 48 h
[1] = tested on: SNB-75 CNS
[2] = tested on: ACHN renal
[3] = tested on: UACC-62 melanoma
[4] = tested on: NCI-H460 lung
[5] = tested on: OVCAR-3 ovarian
[6] = tested on: MALME-3M melanoma
[7] = tested on: SNB-19 CNS
[8] = tested on: CCRF-CEM leukemia
[9] = tested on: UACC-257 melanoma
[10] = tested on: SN12C renal
[11] = tested on: IGROV1 ovarian
[12] = tested on: SR leukemia

Structure (SMILES)	TGI [1]	TGI [2]	TGI [3]	TGI [4]	TGI [5]	TGI [6]	TGI [7]	TGI [8]	TGI [9]	TGI [10]	TGI [11]	TGI [12]	GI50 [1]	GI50 [3]	GI50 [5]	GI50 [9]	GI50 [11]	GI50 [6]	GI50 [10]
O=S(=O)(/N=C(\NO)Nc1ccc(Cl)cc1)c1cc(C(F)(F)F)cc(C(F)(F)F)c1	33.1 µM	31.3 µM	30.7 µM	73.6 µM	34.8 µM	37.1 µM	31.5 µM	> 100 µM	42.4 µM	32.1 µM	31.6 µM								
CCOC(=O)C1(C/C=C\CBr)CCCC1=O (centres undefined)	> 100 µM	56.5 µM	39.8 µM			> 100 µM	> 100 µM		> 100 µM	40.1 µM	> 100 µM								
CC(C)(C)OC(=O)N(CCCCNC(=O)C(F)(F)F)CCCNC(=O)C(F)(F)F	> 100 µM	> 100 µM	> 100 µM	> 100 µM	> 100 µM		> 100 µM	> 100 µM	> 100 µM	> 100 µM	> 100 µM	> 100 µM							
Cc1[nH]n(-c2nc3c(c(=O)[nH]2)CCCC3)c(=O)c1CCO		> 100 µM	> 100 µM	> 100 µM	> 100 µM	> 100 µM	> 100 µM	> 100 µM	> 100 µM	> 100 µM	> 100 µM								
c1cc(-c2ccc(-c3ccsc3)s2)cs1	76.4 µM	> 100 µM	> 100 µM	> 100 µM	> 100 µM			44.4 µM	> 100 µM	> 100 µM	> 100 µM	> 100 µM							
N#Cc1sc2nc3ccccc3n2c1N	> 100 µM	> 100 µM	> 100 µM		> 100 µM	> 100 µM	> 100 µM	> 100 µM	> 100 µM		> 100 µM								
O=C(c1ccc(Cl)cc1)N(C(=O)N1CCCCC1)c1ccccc1		> 100 µM	> 100 µM		> 100 µM	> 100 µM	> 100 µM	> 100 µM		> 100 µM	> 100 µM								
NNc1nnc(CCCCCCCCc2nnc(NN)n2N)n1N	> 100 µM	> 100 µM		> 100 µM			> 100 µM	> 100 µM	> 100 µM	> 100 µM	> 100 µM								
CC(=O)NC1C(OCC(=O)NCCNc2ccc([N+](=O)[O-])c3[nH]c4ccccc4c(=O)c23)C(O)C(CO)OC1(C)OCc1ccccc1 (centres undefined)	> 100 µM	> 100 µM	> 100 µM	> 100 µM	> 100 µM		> 100 µM	> 100 µM	> 100 µM	> 100 µM	> 100 µM								
O=c1[nH]c(N/N=C\C(O)C(O)C(O)C(O)CO)nc2ccccc12 (centres undefined)	> 100 µM	> 100 µM	> 100 µM	> 100 µM	> 100 µM		> 100 µM	> 100 µM	> 100 µM	> 100 µM	> 100 µM	> 100 µM							
Cc1cccc2sc(NC(=O)NS(=O)(=O)n3cnc4ccccc43)nc12	63.3 µM	> 100 µM	34.3 µM	> 100 µM	46.8 µM	72 µM	> 100 µM	> 100 µM	74.8 µM	> 100 µM	51.1 µM								
COC1(OC)CCc2c(sc3ncnc(Nc4cccc(Br)c4)c23)C1	83.2 µM	> 100 µM	> 100 µM	> 100 µM	> 100 µM	> 100 µM	> 100 µM		> 100 µM	> 100 µM	> 100 µM	> 100 µM							
COc1ccc(/C(Nc2ccccc2)=C(\CCl)c2ccccc2)cc1OC	> 100 µM	> 100 µM	> 100 µM	> 100 µM	> 100 µM	> 100 µM	> 100 µM	65.5 µM	> 100 µM	> 100 µM	> 100 µM								
CCOC(=O)c1cn(CC)c(=O)n2c1nc1ccccc12	> 100 µM	> 100 µM	> 100 µM	> 100 µM	> 100 µM		> 100 µM	> 100 µM	> 100 µM	> 100 µM	> 100 µM	> 100 µM							
COc1cc(C2c3cc4c(cc3OC(NN)C2C)OCO4)cc(OC)c1O (centres undefined)	> 100 µM		18.9 µM		> 100 µM	40.1 µM	> 100 µM		93 µM	62.2 µM	> 100 µM								
CC(=O)c1ccc(N=NN2CCCC2)cc1	> 100 µM	> 100 µM	> 100 µM	> 100 µM	> 100 µM		> 100 µM	> 100 µM	> 100 µM	> 100 µM	> 100 µM	> 100 µM							

Structure (SMILES)	TGI [1]	TGI [2]	TGI [3]	TGI [4]	TGI [5]	TGI [6]	TGI [7]	TGI [8]	TGI [9]	TGI [10]	TGI [11]	TGI [12]	GI50 [1]	GI50 [3]	GI50 [5]	GI50 [9]	GI50 [11]	GI50 [6]	GI50 [10]
CC1(C)O[C@@H]2[C@@H](COC(C)(C)O[C@H]2C2SCCCS2)O1		> 100 µM	> 100 µM	> 100 µM	> 100 µM	> 100 µM	> 100 µM			> 100 µM									
O=C(CCc1cc(O)cc(O)c1)NCCc1cc(O)cc(OCc2ccccc2)c1	76.2 µM	81.6 µM	> 100 µM	47.3 µM	> 100 µM		> 100 µM		> 100 µM	> 100 µM	> 100 µM	87.3 µM							
CC(=O)OC1COC(N2CCc3cc([N+](=O)[O-])ccc32)C(OC(C)=O)C1OC(C)=O (centres undefined)	> 100 µM	> 100 µM	> 100 µM	> 100 µM	> 100 µM		> 100 µM	> 100 µM	> 100 µM		> 100 µM	> 100 µM							
CC(=O)c1ccc(Nc2c3c(nc4ccccc24)CCCC3)cc1	22.1 µM	> 100 µM	> 56 µM	> 66.8 µM	> 44.7 µM		99.5 µM	> 100 µM	> 74 µM	> 100 µM	23.8 µM	74.2 µM							
O=[N+]([O-])c1cccc2nc3ccccc3c(NCCCCCNc3c4ccccc4nc4cccc([N+](=O)[O-])c34)c12	0.867 µM and 0.827 µM	0.115 µM and 0.0165 µM	0.303 µM and 0.307 µM	0.164 µM	0.262 µM and 0.054 µM	0.16 µM			0.393 µM and 1.23 µM	0.0777 µM and 0.0827 µM	0.506 µM and 1.2 µM	0.0202 µM	0.041 µM	0.0351 µM	0.0135 µM	0.0619 µM	0.127 µM		
CC1=NN(c2nc(N)nc(C(C)Cl)n2)C(C)(C)C1 (centres undefined)	> 100 µM	> 100 µM	> 100 µM	> 100 µM			> 100 µM	> 100 µM	> 100 µM		> 100 µM	> 100 µM							
C1CSCCSCCCS[C@@H]2CCCCC2SC1 (some centres undefined)	> 100 µM	> 100 µM	> 100 µM	> 100 µM	> 100 µM	> 100 µM	> 100 µM	88.7 µM	> 100 µM	> 100 µM	> 100 µM								
CSc1nncc(-c2cc3c(c(SC)n2)CCCC3)n1	> 100 µM	> 100 µM	> 100 µM	> 100 µM	> 100 µM		> 100 µM	> 100 µM	> 100 µM	> 100 µM		> 100 µM							
Cc1cc(O)c(/C=N/C(N)=S)c(=O)o1	> 100 µM	> 100 µM	> 100 µM	> 100 µM	> 100 µM		> 100 µM	84.4 µM	> 100 µM	> 100 µM	> 100 µM								
Cc1c(C)c(S(=O)(=O)N(CCCCN)OCCCN)c(C)c2c1OC(C)(C)CC2	32.7 µM	47.2 µM	72.2 µM	41.2 µM	30.6 µM		37.3 µM	98.3 µM	61.4 µM	> 100 µM	20.2 µM	> 100 µM							
Clc1ccc(C=Nc2ccc(Oc3ccc(Cl)cc3)c(Cl)c2)cc1	52.6 µM	> 100 µM	41.5 µM	44.5 µM	40.4 µM	49.2 µM	56.2 µM	59.7 µM	77.5 µM	36.6 µM	> 100 µM								
O=C1CC(c2cccc(Cl)c2)Nc2ccc(N3CCCC3)cc21 (centres undefined)		> 100 µM			> 100 µM		> 100 µM		> 100 µM	0.0151 µM									
O=C(NCCN(CCNC(=O)c1cccc(O)c1O)CCNC(=O)c1cccc(O)c1O)c1cccc(O)c1O	> 100 µM	> 67.7 µM	48 µM	> 51.6 µM	> 40.2 µM	> 52.5 µM	> 100 µM		> 100 µM	> 100 µM	> 72.4 µM	> 34.2 µM							
Cn1c2ccccc2c(=O)c2c(O)cc3c(c21)C1OCC(C)(O)C1O3 (centres undefined)	56 µM	> 100 µM					> 100 µM	> 100 µM	> 100 µM	> 100 µM	79.7 µM	> 100 µM							
COc1cc([C@@H]2c3cc4c(cc3[C@@H](Nc3ccc(NC(=O)c5cc([N+](=O)[O-])cn5C)cc3)[C@H]3COC(=O)[C@H]23)OCO4)cc(OC)c1O	> 63.5 µM	0.484 µM and 0.164 µM		0.174 µM and 0.0745 µM	10.7 µM and 3.15 µM		> 44.5 µM	0.14 µM	> 65.5 µM	0.262 µM and 0.437 µM								0.279 µM and 0.115 µM	0.0231 µM and 0.055 µM
Cc1nc2c(sc3nc4c(cc32)CCC4)c(=O)o1	> 100 µM	> 100 µM	> 100 µM	> 100 µM	> 100 µM		> 96.6 µM	> 88.9 µM	> 100 µM	> 100 µM	59.1 µM	> 100 µM							
